Where two headings read alike, the source gives them in different places.
Legend:
[1] = tested on: ORYSA (rice); assay: Postemergence herbicidal safening in direct seeded rice, visual injury; details: for ‘M202’ ORYSA Visual Injury (%) Obs: Safener Alone, 560 g ai/ha; for ‘M202’ ORYSA Visual Injury (%) Obs / Visual Injury (%) ‘Lemont’ ORYSA Obs: after 3 weeks; for Visual Injury (%) ‘Lemont’ ORYSA Obs: alone
Excerpt: A=observed efficacy of active ingredient A at the same concentration as used in the mixture.
B=observed efficacy of active ingredient B at the same concentration as used in the mixture.

[2] = tested on: ECHCO; assay: Postemergence herbicidal safening in direct seeded rice, visual injury on weed; type: in vivo; details: alone, after 3 weeks
[3] = tested on: SEBEX; assay: as above; type: in vivo; details: alone, after 3 weeks
[4] = tested on: CYPDI; assay: as above; type: in vivo; details: alone, after 3 weeks
[5] = tested on: weed test plant species; assay: Herbicidal safening in transplanted paddy rice, visual injury on weeds; type: in vivo; details: after 3 weeks; for Visual Injury (%) CYPDI Obs: Cyperus difformis; for Visual Injury (%) MOOVA Obs: Monochoria vaginalis; for Visual Injury (%) SCPJU Obs: Scirpus juncoides
Procedure: (§1) Evaluation of Herbicidal Safening in Transplanted Paddy Rice
(§2) The prepared mud was dispensed in 250 mL aliquots into 480 mL non-perforated plastic pots with a surface area of 91.6 cm^2 leaving a headspace of 3 cm in each pot. Rice seeds were planted in Sun Gro MetroMix 306 planting mixture, which typically has a pH of 6.0 to 6.8 and an organic matter content of about 30 percent, in plastic plug trays. Seedlings at the second or third leaf stage of growth were transplanted into 650 mL of mud contained in 960 mL non-perforated plastic pots with a surface area of 91.6 cm^2 four days prior to herbicide application. The paddy was created by filling the 3 cm headspace of the pots with water. […] Nutrients were added as Osmocote (17:6:10, Nitrogen:Phosphorus:Potassium (N:P:K)+minor nutrients) at 2 grams (g) per cup.
(§3) For technical grade compounds and safeners, a weighed amount, determined by the highest rate to be tested, was placed in an individual 120 mL glass vial and was dissolved in 20 mL of acetone to obtain concentrated stock solutions. […] The concentrated stock solutions obtained were diluted with 20 mL of acetone. Applications were made by injecting an appropriate amount of the stock solution into the aqueous layer of the paddy. […] All treated plant material received the same concentration of acetone and crop oil concentrate.

[6] = tested on: direct seeded rice
[7] = tested on: transplanted paddy rice; assay: Herbicidal safening in transplanted paddy rice, visual injury; type: in vivo, Oryza sativa; details: after 3 weeks; for ‘M202’ ORYSA Visual Injury (%) Obs: safener 1120 g ae/ha alone
Procedure: as §1, §2, §3

[8] = tested on: transplanted paddy rice; assay: Safening activity of herbicide mixtures in transplanted paddy rice; type: in vivo, Oryza sativa
Procedure: as §2, §3
Forms of compound 1 were applied on an acid equivalent basis.

SMILES: Clc1cc(Cl)nc(-c2ccccc2)n1 [Fenclorim, 4,6-dichloro-2-phenylpyrimidine]
- ‘M202’ ORYSA Visual Injury (%) Obs [1]: 6.7%
- Visual Injury (%) ‘Lemont’ ORYSA Obs ([1]; 35 g ai/ha): 0%
- Visual Injury (%) ‘Lemont’ ORYSA Obs ([1]; 70 g ai/ha): 0%
- Visual Injury (%) ‘Lemont’ ORYSA Obs ([1]; 140 g ai/ha): 0%
- Visual Injury (%) ‘Lemont’ ORYSA Obs ([1]; 280 g ai/ha): 0%
- Visual Injury (%) ECHCO Obs ([2]; 35 g ai/ha): 0%
- Visual Injury (%) ECHCO Obs ([2]; 70 g ai/ha): 0%
- Visual Injury (%) ECHCO Obs ([2]; 140 g ai/ha): 0%
- Visual Injury (%) ECHCO Obs ([2]; 280 g ai/ha): 0%
- Visual Injury (%) SEBEX Obs ([3]; 35 g ai/ha): 0%
- Visual Injury (%) SEBEX Obs ([3]; 70 g ai/ha): 0%
- Visual Injury (%) SEBEX Obs ([3]; 140 g ai/ha): 0%
- Visual Injury (%) SEBEX Obs ([3]; 280 g ai/ha): 0%
- Visual Injury (%) CYPDI Obs ([4]; 35 g ai/ha): 0%
- Visual Injury (%) CYPDI Obs ([4]; 70 g ai/ha): 0%
- Visual Injury (%) CYPDI Obs ([4]; 140 g ai/ha): 0%
- Visual Injury (%) CYPDI Obs ([4]; 280 g ai/ha): 0%
- Visual Injury (%) CYPDI Obs ([5]; safener 70 g ai/ha alone): 0%
- Visual Injury (%) CYPDI Obs ([5]; safener 140 g ai/ha alone): 0%
- Visual Injury (%) CYPDI Obs ([5]; safener 280 g ai/ha alone): 0%
- Visual Injury (%) MOOVA Obs ([5]; safener 70 g ai/ha alone): 0%
- Visual Injury (%) MOOVA Obs ([5]; safener 140 g ai/ha alone): 0%
- Visual Injury (%) MOOVA Obs ([5]; safener 280 g ai/ha alone): 0%

SMILES: COC(=O)c1c(Cl)nn(C)c1S(=O)(=O)NC(=O)Nc1nc(OC)cc(OC)n1 [Halosulfuron-methyl]
- ORYSA Visual Injury (%) ‘M202’ Obs ([6]; partner 26 g/ha alone): 0%
- ORYSA Visual Injury (%) ‘Wells’ Obs ([6]; partner 26 g/ha alone): 10%
- ORYSA Visual Injury (%) ‘M202’ Obs ([6]; partner 52 g/ha alone): 15%

SMILES: CCOC(=O)C1=NOC(c2ccccc2)(c2ccccc2)C1 [Isoxadifen-ethyl, ethyl 4,5-dihydro-5,5-diphenyl-3-isoxazole-carboxylate]
- Visual Injury (%) ‘Lemont’ ORYSA Obs ([1]; 17.5 g ai/ha): 0%
- Visual Injury (%) ‘Lemont’ ORYSA Obs ([1]; 35 g ai/ha): 5%
- Visual Injury (%) ‘Lemont’ ORYSA Obs ([1]; 70 g ai/ha): 10%
- Visual Injury (%) ‘Lemont’ ORYSA Obs ([1]; 140 g ai/ha): 5%
- Visual Injury (%) ECHCO Obs ([2]; 17.5 g ai/ha): 0%
- Visual Injury (%) ECHCO Obs ([2]; 35 g ai/ha): 0%
- Visual Injury (%) ECHCO Obs ([2]; 70 g ai/ha): 0%
- Visual Injury (%) ECHCO Obs ([2]; 140 g ai/ha): 0%
- Visual Injury (%) SEBEX Obs ([3]; 17.5 g ai/ha): 0%
- Visual Injury (%) SEBEX Obs ([3]; 35 g ai/ha): 0%
- Visual Injury (%) SEBEX Obs ([3]; 70 g ai/ha): 0%
- Visual Injury (%) SEBEX Obs ([3]; 140 g ai/ha): 0%
- Visual Injury (%) CYPDI Obs ([4]; 17.5 g ai/ha): 0%
- Visual Injury (%) CYPDI Obs ([4]; 35 g ai/ha): 0%
- Visual Injury (%) CYPDI Obs ([4]; 70 g ai/ha): 0%
- Visual Injury (%) CYPDI Obs ([4]; 140 g ai/ha): 0%
- Visual Injury (%) ‘M202’ ORYSA Obs ([7]; safener 140 g ai/ha alone): 0%
- Visual Injury (%) ‘M202’ ORYSA Obs ([7]; safener 280 g ai/ha alone): 0%
- Visual Injury (%) ‘M202’ ORYSA Obs ([7]; safener 560 g ai/ha alone): 0%
- ‘M202’ ORYSA Visual Injury (%) Obs [7]: 0%
- Visual Injury (%) SCPJU Obs ([5]; safener 140 g ai/ha alone): 0%
- Visual Injury (%) SCPJU Obs ([5]; safener 280 g ai/ha alone): 0%
- Visual Injury (%) SCPJU Obs ([5]; safener 560 g ai/ha alone): 0%
- Visual Injury (%) ECHCG Obs ([5]; safener 140 g ai/ha alone): 0%
- Visual Injury (%) ECHCG Obs ([5]; safener 280 g ai/ha alone): 0%
- Visual Injury (%) ECHCG Obs ([5]; safener 560 g ai/ha alone): 0%

SMILES: CCOC(=O)C1=NN(c2ccc(Cl)cc2Cl)C(C)(C(=O)OCC)C1 (centres unmarked) [Mefenpyr-diethyl]
- ‘M202’ ORYSA Visual Injury (%) Obs [1]: 0.0%
- ORYSA Visual Injury (%) ‘Clearfield’ Obs ([1]; safener 140 g ai/ha alone): 0%
- ORYSA Visual Injury (%) ‘Cocodrie’ Obs ([1]; safener 140 g ai/ha alone): 10%
- ORYSA Visual Injury (%) ‘Lemont’ Obs ([1]; safener 140 g ai/ha alone): 0%
- ORYSA Visual Injury (%) ‘M202’ Obs ([1]; safener 140 g ai/ha alone): 10%
- ‘M202’ ORYSA Visual Injury (%) Obs [7]: 0%

SMILES: CNc1cnn(-c2cccc(C(F)(F)F)c2)c(=O)c1Cl [Norflurazon]
- ORYSA Visual Injury (%) ‘M202’ Obs ([6]; partner 70 g/ha alone): 15%

SMILES: O=c1c(Cl)c[nH]c(Cl)c1Cl [Pyriclor]
- Visual Injury (%) ‘M202’ ORYSA Obs ([8]; partner 140 g/ha alone): 0%

SMILES: CS(=O)(=O)c1ccc(C(=O)C2C(=O)CCCC2=O)c(Cl)c1 [Sulcotrione]
- Visual Injury (%) ‘M202’ ORYSA Obs ([8]; partner 280 g/ha alone): 10%
- ORYSA Visual Injury (%) ‘Wells’ Obs ([6]; partner 280 g/ha alone): 99%

Reference: patent US8916498B2, “Safening 6-(trisubstituted phenyl)-4-amino-2-pyridinecarboxylate herbicide injury on direct seeded and transplanted paddy rice” (priority 2008, dated 2014)
